One test deals with T1, Cathepsin V (Homo sapiens, UniProt O60911).
T1 construct: made in house; host or cells: Pichia pastoris
In words: Determination of relative inhibition, substrate Z-Phe-Arg-AMC. It counts as biochemical. The following applies: inhibitor 50 μM; substrate 2 μM; mean ± SD (n = 2); read-out: Cathepsin V Ri (%) relative inhibition. On the procedure: (§1) Human recombinant cathepsin V was expressed in Pichia Pastoris, and human recombinant cathepsin L was expressed in Escherichia coli, as reported, [51]. To determine the activities of cathepsins V and L, 100 mM acetate buffer (pH 5.5), containing 0.1 % PEG 8000 (Sigma-Aldrich, St. Louis, MO, USA), 5 mM cysteine, and 1.5 mM EDTA was used. Prior to the assay, the enzyme was activated in the assay buffer for 5 min at 37 °C.
(§2) The effect of the inhibitors on cathepsin V and L activity was determined using the substrate Z-Phe-Arg-AMC (Bachem, Bubendorf, Switzerland). The reaction was initiated by adding 90 μL of the activated enzyme (final concentration 2.5 ng/mL and 0.02 nM for cathepsins V and L, respectively) to the wells of a black microtiter plate containing 5 μL of substrate (with a final concentration 2 μM) and 5 μL of inhibitor (with a final concentration of 50 μM). The formation of fluorescent degradation products during the reaction was monitored continuously at 460 nm ± 10 nm with excitation at 380 nm ± 20 nm at 37 °C on a Tecan Infinite M1000 (Mannedorf, Switzerland) spectrofluorometer. All assay mixtures contained 5 % (v/v) DMSO. To prevent false-positive inhibition due to the formation of compound aggregates, 0.01 % Triton X-100 was used. All measurements were performed in triplicate and repeated at least twice. Relative inhibition was calculated using the following equation: relative inhibition (%) = 100(1- vi/vo), where vi and vo denote the reaction velocities in the presence and absence of the inhibitor, respectively.

The target in test [1] is T2, human recombinant cathepsin L (Homo sapiens, UniProt P07711).
T2 construct: made in house; host or cells: Escherichia coli
T2 sequence (P07711 114-333): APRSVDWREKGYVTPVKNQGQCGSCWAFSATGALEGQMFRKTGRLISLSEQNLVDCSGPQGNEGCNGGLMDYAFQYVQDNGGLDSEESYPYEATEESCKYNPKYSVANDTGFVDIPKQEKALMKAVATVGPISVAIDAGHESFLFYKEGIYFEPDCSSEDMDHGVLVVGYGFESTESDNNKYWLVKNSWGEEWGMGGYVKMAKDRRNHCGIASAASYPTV
The test is described as above. The following applies: inhibitor 50 μM; substrate 2 μM; mean ± SD (n = 2); read-out: Cathepsin L Ri (%) relative inhibition. The class given is biochemical. The protocol: as §1, §2

We go through one compound from paper PMC9459403, “New inhibitors of cathepsin V impair tumor cell proliferation and elastin degradation and increase immune cell cytotoxicity” (Computational and Structural Biotechnology Journal, 2022).

Bounds are passed on as bounds.

One may read the inhibition as the relative decrease from the control value, in per cent.

T1 sequence (O60911 114-334): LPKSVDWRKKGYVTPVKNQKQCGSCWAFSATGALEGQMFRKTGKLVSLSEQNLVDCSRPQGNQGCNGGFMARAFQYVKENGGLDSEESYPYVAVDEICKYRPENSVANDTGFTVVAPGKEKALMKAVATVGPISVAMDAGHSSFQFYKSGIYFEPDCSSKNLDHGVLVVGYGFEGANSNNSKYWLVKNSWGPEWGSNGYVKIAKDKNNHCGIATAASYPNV

Turning to `O=C(NCc1cccc2ccccc12)NCC1CCN(C(=O)Oc2ccccc2)CC1` [Compound 7, Phenyl 4-((3-(naphthalen-1-ylmethyl)ureido)methyl)piperidine-1-carboxylate], the figures for the inhibition at 50 µM (on Cathepsin V; in test [1]) were greater than 20% and 12.1 ± 1.8%, respectively.
